Activity calls are given as the source filed them.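 Rule for the calls: active = compounds giving half or more protection of infected cells from virus-caused growth loss, again on retest; inactive = the rest.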

The values that follow come from PubChem BioAssay AID179 (DTP/NCI, 2004).

The subject of the experiment is CEM cells HIV-1 protection, formazan growth assay. Put plainly: NCI AIDS Antiviral Assay. Conditions: for IC50: measured here: growth of uninfected CEM cells. Put shortly:
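Protection of CEM cells against HIV-1 was scored from cell growth (soluble formazan) across five concentrations, with parallel uninfected cells. Lack of protection may reflect toxicity.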

Take `COc1cc2c3c(c1OC)C1(C=CC(=O)C=C1)CC3N(C(=O)OC(C)(C)C(Cl)(Cl)Cl)CC2` (stereo not given): the outcome was inactive.
As usually defined, the EC50 is the midpoint of the concentration-response curve. As a reminder, the IC50 is the concentration needed to halve the response being measured. Low readings indicate inhibition by little substance, high ones a need for much substance. `N#CCCN(CCCN(C(=O)Nc1ccc(NC(=O)N(CCCN(CCC#N)C(N)=O)c2ccccc2)cc1)c1ccccc1)C(N)=O`: the EC50 is > 200 µM and the IC50 is > 200 µM.
On to `CCCCN(CCCC)CC1CC(C(C)(C)C)CCC1O` (stereo not given), for which the EC50 is > 200 µM and the IC50 came to 19.5 µM.
Take `C=C[C@@H]1c2ccccc2C=C[C@]1(CCC1(C)OCCO1)C1=NC(C)(C)CO1`: the EC50 is > 70.8 µM and the 50% inhibitory concentration (IC50) was > 70.8 µM.
Turning to `O=C(c1ccccn1)c1nc(-c2ccc(Cl)c(Cl)c2)nc2ccc(Cl)cc12`, the result was inactive.
On to `O=[N+]([O-])c1nccn1CCCNCCCn1ccnc1[N+](=O)[O-]`, for which the EC50 was > 200 µM and the IC50 was > 200 µM.
For `CCCc1cc(=O)oc2c3c(c4c(c12)OC(C)(C)[C@H](O)[C@H]4O)O[C@@H](C)[C@H](C)[C@@H]3O`, the EC50 is > 200 µM and the 50% inhibitory concentration (IC50) stood at 115 µM.
The corresponding values for `CCCc1cc(=O)oc2c3c(cc(OC(C)CC)c12)O[C@H](C)[C@@H](C)[C@@H]3O` (stereo not given in full) are 3.63 µM and 37.2 µM.
In the case of `CCOC(=O)C1=NN(c2ccccc2)C(=O)/C1=C\N1CCNC1=S`, the EC50 is > 135 µM and the half-maximal inhibitory concentration (IC50) was > 100 µM.
The corresponding values for `C=CCNC(=O)N(CCCCC(NC(C)=O)C(=O)NCc1ccccc1)Cc1ccccc1` (stereo not given) are > 550 µM and 372 µM.
Regarding `CC1=C(CC2C(=O)N(c3ccccc3)S(=O)(=O)NC2C)C(=O)N(c2ccccc2)S(=O)(=O)N1C` (stereo not given), the EC50 was > 490 µM and the concentration for half-maximal inhibition (IC50) was found to be 16.6 µM.
The corresponding values for `Cc1cc(Cl)nc(Nc2nc3ccccc3[nH]2)n1` are > 200 µM and > 200 µM.
Regarding `CCCCCCCCCCN=C(N)CSSCC(N)=NCCCCCCCCCC`, the EC50 was > 200 µM and the 50% inhibitory concentration (IC50) worked out at 16.6 µM.
Take `NS(=O)(=O)c1ccc(SSc2ccc(S(N)(=O)=O)cc2[N+](=O)[O-])c([N+](=O)[O-])c1`: the concentration for a half-maximal effect (EC50) is 30.9 µM and the IC50 came out at 195 µM.
The corresponding values for `COC(=O)c1cc(C(=CC(=O)OC(C)(C)C)c2cc(Cl)c(OC)c(C(=O)OC)c2)cc(Cl)c1OC` are > 100 µM and 14.1 µM.
The corresponding values for `CC1=C(C(=O)N[C@@H](CC(C)C)C(=O)O)N2C(=O)[C@@H](NC(=O)[C@@H](N)Cc3ccccc3)[C@H]2SC1` are > 200 µM and 85.1 µM.
The corresponding values for `COC(=N)C(C)C` are > 1820 µM and > 1820 µM.
As to `O=C(C(/C=N/C(=S)NCc1ccccc1)=C(/O)c1ccccc1)c1ccccc1`, the EC50 was > 200 µM and the IC50 was 30.9 µM.
Consider `CCOC(=O)C1=C(NC)OC/C1=N\NC(=O)c1ccccc1O`, for which the EC50 was > 93.3 µM and the half-inhibitory concentration (IC50) stood at 14.1 µM.
For `CCN(CC)C(=S)SS(=O)(=O)c1ccc(NC(C)=O)cc1`, the EC50 was > 200 µM and the half-maximal inhibitory concentration (IC50) turned out to be 11 µM.
Consider `O=C1NC2(CN3CCC2CC3)C(=O)N1CN(Cc1ccccc1)c1ccccc1` (stereo not given), for which the EC50 was > 200 µM and the 50% inhibitory concentration (IC50) stood at 91.2 µM.
The corresponding values for `CC1(C)OCC2OC3([C@H]4OC(C)(C)O[C@@H]4CO)OC(C)(C)OC3C2O1` (stereo not given in full) are > 200 µM and > 200 µM.
The corresponding values for `CCCCC(O)(Cc1ccccc1)c1ccc(OCCN(CC)CC)cc1` (stereo not given) are > 200 µM and 14.1 µM.
Regarding `Clc1ccc(C2=Cc3nc2c(-c2ccccc2)c2ccc([nH]2)c(-c2ccccc2)c2nc(c(-c4ccccc4)c4ccc([nH]4)c3-c3ccccc3)C=C2)cc1`, the EC50 is > 200 µM and the 50% inhibitory concentration (IC50) is > 200 µM.
Turning to `COC1=CC2(c3ccccc3)C(=CC1=O)CCN2C(=O)c1ccccc1` (stereo not given), the outcome was inactive.
Turning to `COC(=O)c1c(N)n[nH]c1N`, the outcome was inactive.
Same read-out and setting: next, `COC1=CC(=O)c2c(O)c(CO)cc(O)c2C1=O`: “inactive”.
Regarding `CCOC(=O)/C(F)=C/c1ccc(F)cc1`, the EC50 was > 123 µM and the IC50 was > 123 µM.
For the compound `COc1nc(=O)n(C)cc1B(O)O`, the EC50 is > 200 µM and the half-maximal inhibitory concentration (IC50) worked out at 32.4 µM.
`CC(=O)NC(NNC(NC(C)=O)(c1ccccc1)c1ccccc1)(c1ccccc1)c1ccccc1`: the EC50 was > 200 µM and the half-inhibitory concentration (IC50) is > 200 µM.
For `CCCCCCCCSCC1OC2OC3C(CSCCCCCCCC)OC(OC4C(CSCCCCCCCC)OC(OC5C(CSCCCCCCCC)OC(OC6C(CSCCCCCCCC)OC(OC7C(CSCCCCCCCC)OC(OC8C(CSCCCCCCCC)OC(OC1C(OS(=O)(=O)O)C2OS(=O)(=O)O)C(OS(=O)(=O)O)C8OS(=O)(=O)O)C(OS(=O)(=O)O)C7OS(=O)(=O)O)C(OS(=O)(=O)O)C6OS(=O)(=O)O)C(OS(=O)(=O)O)C5OS(=O)(=O)O)C(OS(=O)(=O)O)C4OS(=O)(=O)O)C(OS(=O)(=O)O)C3OS(=O)(=O)O` (stereo not given), the concentration for a half-maximal effect (EC50) is 2.57 µM and the half-maximal inhibitory concentration (IC50) is 50.1 µM.
Regarding `Cc1cc(=O)oc2cc3c(cc12)CCCN3`, the EC50 was > 33.9 µM and the half-maximal inhibitory concentration (IC50) was > 33.9 µM.
For the compound `Nc1ccccc1-c1noc(=O)[nH]1`, the EC50 is > 200 µM and the IC50 is > 200 µM.
On to `Cc1nc2nnnn2c2c1C(=O)Nc1ccccc1N2`, for which the EC50 is > 200 µM and the concentration for half-maximal inhibition (IC50) was 83.2 µM.
In the case of `Cc1ccc(S(=O)(=O)OCCOC(Cc2ccccc2)n2cc(C)c(=O)[nH]c2=O)cc1` (stereo not given), the EC50 is > 200 µM and the IC50 was > 200 µM.
With `CCOC(=O)c1cnc(NC)n2nc(-c3ccccc3)nc12`, the outcome was inactive.
As for `CCOC(=O)/C=C\SCCC(=O)OC`, the EC50 is > 1150 µM and the IC50 was 741 µM.
As to `CCC1=NC(N/N=C/c2ccco2)=N/C1=C\c1ccccc1O`, the EC50 was > 50.1 µM.
For `C[n+]1c2ccccc2n2c3ccccc3c(NCCc3ccccn3)c(C#N)c21`, the EC50 is > 20 µM and the IC50 was found to be 1.29 µM.
The corresponding values for `CN(C)Cc1cc(/C=C/C(=O)c2ccc(Br)cc2)cc(CN(C)C)c1O` are > 200 µM and 10.5 µM.
Turning to `O=[N+]([O-])c1ccc(/C=C/c2ccc([N+](=O)[O-])cc2S(=O)(=O)O)c(S(=O)(=O)O)c1`, the result was inactive.
For the compound `Cc1cc(=S)oc2c3c(ccc12)OC(C)(C)[C@H](OC(=O)C12CCC(C)(C(=O)O1)C2(C)C)[C@@H]3OC(=O)C12CCC(C)(C(=O)O1)C2(C)C` (stereo not given in full), the EC50 was 0.0575 µM and the half-maximal inhibitory concentration (IC50) was determined as 20 µM.
The corresponding values for `Cc1ccc(/C=C(\NC(=O)c2ccccc2)c2nc3ccccc3[nH]2)cc1` are > 74.1 µM and > 74.1 µM.
The corresponding values for `CSc1ncc2c(C#N)c3ccccn3c(=O)c2n1` are > 200 µM and > 200 µM.
The corresponding values for `O=S(=O)(c1ccccc1)N1CC2CC(Br)C(Br)CC21` (stereo not given) are > 45.7 µM and > 45.7 µM.
On to `COc1ccc(/C=C2\N=C(N3CCCCC3)NC2=O)cc1`, for which the EC50 was > 200 µM and the half-inhibitory concentration (IC50) was > 100 µM.
The corresponding values for `O=C(O)CSc1n[nH]c(Cc2ccccc2)n1` are > 1000 µM and > 1000 µM.
The corresponding values for `Cc1ccc2c(c1)C(=O)/C(=C\c1ccc(Cl)cc1)CCS2(=O)=O` are > 200 µM and 1.66 µM.
The corresponding values for `Cc1ccc(N=N/C(=N/NC(=O)c2ccccc2)c2ccc(N(CCC#N)CCC#N)cc2C)cc1` are > 200 µM and 14.8 µM.
